# Data as given in US20240166630A1, “INDOLE DERIVATIVES AS SEROTONERGIC AGENTS USEFUL FOR THE TREATMENT OF DISORDERS RELATED THERETO” (Mindset Pharma Inc., priority 2021, published 2024).
# Where “and” joins values, the source holds several entries; their conditions need not be identical. Equal entries are not always repeated. Where two headings read alike, the source gives them in different places.
# Columns and labels:
# [1] = molecular target: T1, human 5-HT2A (h5-HT2A) receptor (Homo sapiens, UniProt P28223); assay: FLIPR assay, human 5-HT2A receptor under agonist mode; type: cell-based
# T1 construct: expressed in transfected cells; kept under G418 and hygromycin B selection
# Experimental: I. Assessment of the Activated Effect of Compounds of Formula I-B Targeting on Human 5-HT2A (h5-HT2A) Receptor Under Agonist Mode:
# 1. The cells were cultured in cell culture medium (DMEM containing 10% FBS, 1× penicillin-streptomycin 300 μg/ml G418 and 100 μg/ml hygromycin B) at 37° C., 5% (v/v) CO2.
# 2. One day before the assays, the cells were detached using TrypLE™ Express and count cells using cell counter.
# 3. 20000 cells/well were seeded in 30 μl/well culture medium to a 384-well cell plate and incubated the cells overnight at 37° C., 5% (v/v) CO2.
# 4. On the assay day, 2×dye solution was prepared following the manual of the FLIPR® Calcium 6 Assay Kit: i. The dye was diluted with assay buffer (20 mM HEPES in 1×HBSS, PH7.4); ii. probenecid was added to the final concentration of 5 mM; iii. Vortexed vigorously for 1-2 minutes.
# 5. Medium was removed from cell plate by flicking the cell plate on towel papers.
# 7. The cell plate was placed on plate shaker, the plate agitated at 600 rpm for 2 minutes. The plate was incubated at 37° C. for 2 hours followed by additional 15-minute incubation at 25° C.
# 8. 3×compound was prepared in assay buffer: a. Reference compounds were diluted to required concentration with DMSO. The compounds were added to a 384-well compound plate; b. Serial dilutions were performed; c. 10 mM test compounds were added to the compound plate, 3-fold serial dilutions were performed. […] 20 μl/well assay buffer was added to the compound plate; f.
# 9. The cell plate, compound plate and tips were placed into FLIPR, 10 μl of 3× compound was transferred to the cell plate per well with FLIPR.
# i. The normalized fluorescence reading (RFU) was calculated as shown follow, while Fmax and Fmin stand for maximum and minimum of calcium signal during defined time window: RFU=Fmax−Fmin
# ii. The percentage activation was calculated by using following equation: […]
# iii. EC50 was calculated by fitting % activation against log of compound concentrations with Hill equation using Xlfit.
# [2] = Liver microsomes stability with NADPH, human
# Experimental: The objective of this study was to estimate in vitro metabolic stability of representative compounds of the application in pooled human and male mouse liver microsomes. The concentrations of parent compounds in reaction systems were evaluated by LC-MS/MS for estimating the stability in pooled human and male mouse liver microsomes. The in vitro intrinsic clearances of test compounds were determined as well.
# A master solution in the “Incubation Plate” containing phosphate buffer, ultra-pure H2O, MgCl2 solution and liver microsomes was made according to Table 3. The mixture was pre-warmed at 37° C. water bath for 5 minutes.
# 40 μL of 10 mM NADPH solution was added to each well. The final concentration of NADPH was 1 mM. The negative control samples were prepared by replacing NADPH with 40 μL of ultra-pure H2O. Samples were prepared in duplicate. Negative controls were prepared in singlet.
# The reaction was started with the addition of 4 μL of 200 μM test compounds or control compounds to each master solution to get the final concentration of 2 μM. This study was performed in duplicate.
# Aliquots of 50 μL were taken from the reaction solution at 0, 15, 30, 45 and 60 minutes. The reaction solutions were stopped by the addition of 4 volumes of cold methanol with IS (100 nM alprazolam, 200 nM imipramine, 200 nM labetalol and 2 μM ketoprofen). Samples were centrifuged at 3,220 g for 40 minutes. Aliquot of 90 μL of the supernatant was mixed with 90 μL of ultra-pure H2O and then was used for LC-MS/MS analysis.
# LC/MS analysis was performed for all samples from this study using a Shimadzu liquid chromatograph separation system equipped with degasser DGU-20A5R; solvent delivery unit LC-30AD; system controller SIL-30AC; column oven CTO-30A; CTC Analytics HTC PAL System; Mass spectrometric analysis was performed using an Triple Quad™ 5500 instrument.
# All calculations were carried out using Microsoft Excel. Peak area ratios of test compound to internal standard (listed in the below table) were determined from extracted ion chromatograms.
# All calculations were carried out using Microsoft Excel. Peak areas were determined from extracted ion chromatograms. The slope value, k, was determined by linear regression of the natural logarithm of the remaining percentage of the parent drug vs. incubation time curve.
# The in vitro half-life (in vitro t1/2) was determined from the slope value:
# Conversion of the in vitro t1/2 (min) into the in vitro intrinsic clearance (in vitro CLint, in μL/min/mg proteins) was done using the following equation (mean of duplicate determinations): […]
# [3] = In vivo pharmacokinetics in male Sprague Dawley rats; set-up: species or system rat; settings: 0.992 mg/kg s.c.; for AUC(0-t): read-out: AUC0-tlast
# Description: Example 13 (I-B-1): In Vivo Assessment of the Pharmacokinetics in Mice and Rats
# 5. PK Analysis • i. Analysis software: Phoenix® WinNonlin® 8.2 (Pharsight, Certara, Mountainview, CA) • ii. Analysis methods: non-compartmental analysis, linear up/log down trapezoidal rule • iii. PK parameters: C0, t1/2, AUC0-tlast. AUC0-∞, CL, Vss, MRT, tmax(po), Cmax(po), F, as appropriate
# [4] = Liver microsomes stability with NADPH, rat
# T1 sequence (P28223 whole entry): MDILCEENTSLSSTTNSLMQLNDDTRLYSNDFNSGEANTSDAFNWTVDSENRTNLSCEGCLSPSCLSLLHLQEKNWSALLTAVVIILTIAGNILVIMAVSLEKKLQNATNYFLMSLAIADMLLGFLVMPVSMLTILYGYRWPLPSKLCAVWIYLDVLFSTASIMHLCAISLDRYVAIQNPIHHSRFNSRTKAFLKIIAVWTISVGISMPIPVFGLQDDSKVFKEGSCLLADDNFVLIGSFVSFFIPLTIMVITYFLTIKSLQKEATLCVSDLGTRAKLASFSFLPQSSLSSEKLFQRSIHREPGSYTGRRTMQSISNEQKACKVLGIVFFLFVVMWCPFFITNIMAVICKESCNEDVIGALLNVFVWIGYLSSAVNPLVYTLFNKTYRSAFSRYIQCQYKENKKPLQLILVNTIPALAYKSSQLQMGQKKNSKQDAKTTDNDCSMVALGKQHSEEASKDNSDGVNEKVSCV
smiles,measurement,setting,value
"[2H]C([2H])(c1c[nH]c2ccccc12)[C@H]1CCCN1C([2H])([2H])[2H] [I-B-1, (R)-3-((1-(methyl-d3)pyrrolidin-2-yl)methyl-d2)-1H-indole]",EC50,[1],100 to 1000 nM
same,Remaining Percentage (%) after 60 min Human,"[2]; human liver microsomes, with NADPH, 2 μM",82.74%
same,half-life at 2 μM,"[2]; human, microsomes",3.66 h
same,microsomal CLint at 2 μM,"[2]; human, microsomes",6.32 µL/min/mg
same,F,[3]; Mean ± SD,133 ± 10.1%
same,AUC0-tlast,[3]; individual animals,137 ng·h/mL and 133 ng·h/mL
same,AUC(0-inf),[3]; individual animals,154 ng·h/mL and 133 ng·h/mL
same,Apparent t1/2,[3]; individual animals,0.990 h and 26.6^a h and 1.18 h
same,Cmax,[3]; individual animals,140 ng/mL and 137 ng/mL and 64.6 ng/mL
same,F,[3]; individual animals,132% and 144% and 124%
same,MRT0-inf,[3]; individual animals,1.07 h and 9.03 h and 1.40 h
same,tmax,[3]; individual animals,0.0833 h and 1.00 h
same,AUC(0-inf),"[3]; male, Sprague Dawley, rat, plasma, sc, 0.992 mg/kg, Mean ± SD, read-out: AUC0-inf",143 ± 10.8 ng·h/mL
same,AUC(0-t),"[3]; male, Sprague Dawley, rat, plasma, sc, 0.992 mg/kg, Mean ± SD",136 ± 3.91 ng·h/mL
same,Cmax,"[3]; male, Sprague Dawley, rat, plasma, sc, 0.992 mg/kg, Mean ± SD, read-out: Cmax",114 ± 42.7 ng/mL
same,MRT inf,"[3]; male, Sprague Dawley, rat, plasma, sc, 0.992 mg/kg, Mean ± SD, read-out: MRT0-inf",3.83 ± 4.5 h
same,tmax,"[3]; male, Sprague Dawley, rat, plasma, sc, 0.992 mg/kg, Mean ± SD, read-out: tmax",0.25 h
same,AUC(0-inf),"[3]; male, Sprague Dawley, rat, plasma, sc, 0.992 mg/kg, individual animals, read-out: AUC0-inf",141 ng·h/mL
same,AUC(0-t),"[3]; male, Sprague Dawley, rat, plasma, sc, 0.992 mg/kg, individual animals",140 ng·h/mL
same,half-life,"[3]; male, Sprague Dawley, rat, plasma, sc, 0.992 mg/kg, mean (n = 2), outlier excluded, read-out: Apparent t1/2 (converted)",1.09 h
same,Remaining Percentage (%) after 60 min Rat,"[4]; rat liver microsomes, with NADPH, 2 μM",32.40%
same,half-life at 2 μM,"[4]; rat, microsomes",0.615 h
same,microsomal CLint at 2 μM,"[4]; rat, microsomes",37.6 µL/min/mg
